Literature values, collected in Sander's compilation of Henry's law constants (doi:10.1016/s0016-7037(99)00330-0).

Experiment: Henry solubility constant Hcp at 298.15 K (mol/(m3 Pa))
Settings: reference: Plyasunov and Shock (2000); cited value

Row | SMILES | Henry solubility constant Hcp
1 | C=C(C)CCC [2-methyl-1-pentene] | 3.3e-05
2 | C=CC [propene] | 5.6e-05
3 | CC(C)C(C)C [2,3-dimethylbutane] | 7.6e-06
4 | C=C [ethene] | 4.8e-05
5 | CCC#CC(C)(C)C [2,2-dimethyl-3-hexyne] | 0.00014
6 | CCO [ethanol] | 1.9
7 | C#C [ethyne] | 0.00041
8 | CC(C)C [2-methylpropane] | 9.2e-06
9 | CCC(O)CC [3-pentanol] | 0.55
10 | C=C1C2CCC(C2)C1(C)C (stereo not drawn) [2,2-dimethyl-3-methylene-bicyclo[2.2.1]heptane] | 0.00023
11 | C=CC(C)C [3-methyl-1-butene] | 1.9e-05
12 | CCCC(O)CCC [4-heptanol] | 0.34
13 | Cc1cccc(C)c1 [1,3-dimethylbenzene] | 0.0014
14 | CC1CCC(C)(C)C1 (stereo not drawn) [1,1,3-trimethylcyclopentane] | 6.2e-06
15 | C1=CCC=C1 [1,3-cyclopentadiene] | 0.00018
16 | CC1=CCC(C(C)C)C=C1 (stereo not drawn) [α-phellandrene] | 0.00018
17 | C1CCCC1 [cyclopentane] | 5.5e-05
18 | C=C(C)C1CC=C(C)CC1 (stereo not drawn) [1-methyl-4-(1-methylethenyl)-cyclohexene] | 0.00047
19 | CC(C)CC(C)C [2,4-dimethylpentane] | 3.3e-06
20 | CC(C)C(C)C(C)C [2,3,4-trimethylpentane] | 4.3e-06
21 | CCCCCCc1ccccc1 [hexylbenzene] | 0.0004
22 | C=C(C)C [2-methylpropene] | 5.7e-05

Row | SMILES | Henry solubility constant Hcp
23 | CCCCc1ccccc1 [butylbenzene] | 0.00071
24 | C=CCCCCCCC [1-nonene] | 1.2e-05
25 | CCC#CCC [3-hexyne] | 0.00055
26 | CCCCC [pentane] | 8.7e-06
27 | CCCCCC(C)O (stereo not drawn) [2-heptanol] | 0.41
28 | CCCCC(C)O (stereo not drawn) [2-hexanol] | 0.52
29 | CC1=CCC(=C(C)C)CC1 [1-methyl-4-(1-methylethylidene)-cyclohexene] | 0.00079
30 | CCCO [1-propanol] | 1.5
31 | C1=CCC=CC1 [1,4-cyclohexadiene] | 0.001
32 | CCCCC(C)C [2-methylhexane] | 2.9e-06
33 | CCCCC(O)CC (stereo not drawn) [3-heptanol] | 0.31
34 | CCCCCCCCCCc1ccccc1 [decylbenzene] | 8.6e-05
35 | CCCC(O)CC (stereo not drawn) [3-hexanol] | 0.42
36 | CCCC(C)(C)C [2,2-dimethylpentane] | 3.1e-06
37 | Cc1ccc(C)c(C)c1 [1,2,4-trimethylbenzene] | 0.0016
38 | CC(C)CC(C)O (stereo not drawn) [4-methyl-2-pentanol] | 0.35
39 | CCCCCC1CCCC1 [pentylcyclopentane] | 5.3e-06
40 | C#CCCCCCC#C [1,8-nonadiyne] | 0.003
41 | CCC(C)(C)CC [3,3-dimethylpentane] | 5.3e-06
42 | C#CCCCCCC [1-octyne] | 0.00012
43 | C1CC1 [cyclopropane] | 0.00012
44 | C#CCC [1-butyne] | 0.00062

Row | SMILES | Henry solubility constant Hcp
45 | CC(C)CC(C)(C)C [2,2,4-trimethylpentane] | 3e-06
46 | CCCCCO [1-pentanol] | 0.89
47 | CCC(C)C [2-methylbutane] | 7.7e-06
48 | CCCCC(CC)CO (stereo not drawn) [2-ethyl-1-hexanol] | 0.46
49 | C#CCCCCC [1-heptyne] | 0.00018
50 | C1=CCCCC1 [cyclohexene] | 0.00022
51 | C#CCCCCCCC [1-nonyne] | 9.7e-05
52 | CCC(C)O (stereo not drawn) [2-butanol] | 0.99
53 | C1=CCCC1 [cyclopentene] | 0.00016
54 | C=CCCCC=C [1,6-heptadiene] | 5.6e-05
55 | C#CCCCC [1-hexyne] | 0.0003
56 | CCCCCCC [heptane] | 4.9e-06
57 | Cc1ccccc1C(C)C [1-methyl-2-(1-methylethyl)-benzene] | 0.0016
58 | CC(C)(C)C [dimethylpropane] | 6e-06
59 | C[C@H]1CC[C@H](C)CC1 [trans-1,4-dimethylcyclohexane] | 1.1e-05
60 | C1CCCCCCC1 [cyclooctane] | 9.3e-05
61 | Cc1ccc(C(C)C)cc1 [1-methyl-4-(1-methylethyl)-benzene] | 0.00096
62 | C=CCCC [1-pentene] | 2.4e-05
63 | CCC(C)c1ccccc1 (stereo not drawn) [(1-methylpropyl)-benzene] | 0.00053
64 | CC1CCCCC1 [methylcyclohexane] | 2.4e-05
65 | CC=CCCCC [2-heptene] | 2.3e-05
66 | CCCC(C)C [2-methylpentane] | 5.7e-06

Row | SMILES | Henry solubility constant Hcp
67 | C=CCCCCC [1-heptene] | 2.5e-05
68 | C=CCC [1-butene] | 4.2e-05
69 | C#CCCCC#C [1,6-heptadiyne] | 0.0046
70 | CCC(C)(C)C [2,2-dimethylbutane] | 5.6e-06
71 | CCCCCC [hexane] | 6.9e-06
72 | CCCCC(C)CCC (stereo not drawn) [4-methyloctane] | 9.7e-07
73 | CCCCCCCCCCCCCC [tetradecane] | 9.3e-07
74 | CCCC(C)O (stereo not drawn) [2-pentanol] | 0.65
75 | Cc1ccccc1C [1,2-dimethylbenzene] | 0.002
76 | c1ccc2c(c1)CCCC2 [1,2,3,4-tetrahydronaphthalene] | 0.0064
77 | C=CC=C [1,3-butadiene] | 0.00014
78 | CC(C)CCO [3-methyl-1-butanol] | 0.7
79 | CCCCCCC(C)O (stereo not drawn) [2-octanol] | 0.35
80 | C#CC=C [3-buten-1-yne] | 0.00041
81 | CCC(C)CO (stereo not drawn) [2-methyl-1-butanol] | 0.71
82 | CCCCCCO [1-hexanol] | 0.66
83 | CC(C)O [2-propanol] | 1.2
84 | C#CC [propyne] | 0.00075
85 | C1CCCCC1 [cyclohexane] | 5.3e-05
86 | CC(C)CO [2-methyl-1-propanol] | 0.85
87 | CC1(C)C2CC3C(C2)C31C [tricyclene] | 4.9e-05
88 | CC#CCCCC [2-heptyne] | 0.00049
